In patent US8940304B2, “Monoclonal antibodies against the PBP2-A protein and homologous sequences for the treatment of infections by and immunodiagnostics of bacteria of the firmicutes phylum” (priority 2009, dated 2015):

How the values were obtained:
[1] = system: CEB-MRSA; experiment: Comparative in vivo protection antibody versus vancomycin, renal quantification, Assay I; design: species or system Staphylococcus aureus
Description: Four groups of female 8-week Balb/C mice (4 animals per group) received an infective dose of 6.0×10^7 bacteria (CEB-MRSA) by intraperitoneal route. The animals received doses of purified monoclonal antibody (MAB), vancomycin, MAB+vancomycin, and negative control, according to the groups below:
group 1: MAB (400 micrograms) (first day)
group 2: vancomycin (150 micrograms, intramuscular route, 12/12 hours)
group 3: vancomycin+MAB (350 micrograms) (1 day after infection)
The first doses of antibody and vancomycin were administered 4 hours after the administration of the infective dose. The animals were subjected to euthanasia in the fourth day, and the kidneys were aseptically removed and subjected to renal qualification, according to what was previously described.
In this study, the animals were infected and the administration of the antimicrobial or monoclonal antibodies was started just after four hours of infection. The study was conducted with three distinct groups: one treated with vancomycin, other treated with monoclonal antibodies, and a third one with simultaneous administration of antimicrobial+antibodies. Vancomycin doses were adjusted and administered in a way similar to the cases of infections in humans (500 mg every 12 hours).

[2] = system: CEB MRSA; experiment: Comparative in vivo protection antibody versus vancomycin, renal quantification, Assay II; design: species or system Staphylococcus aureus; details: antibody 500 μg
Description: This assay was performed in the same way as the previous one, but, with a lower infective dose (7.0×10^6 bacteria), with the group 1 being treated with 500 micrograms of purified monoclonal antibody; group 2 being treated with vancomycin (150 micrograms, intramuscular route, 12/12 hours; 5 doses); group 3 being treated with vancomycin+500 micrograms of monoclonal antibody; and group 4 being control (non-treated animals).

`CN[C@H](CC(C)C)C(=O)N[C@H]1C(=O)N[C@@H](CC(N)=O)C(=O)N[C@H]2C(=O)N[C@H]3C(=O)N[C@H](C(=O)N[C@H](C(=O)O)c4cc(O)cc(O)c4-c4cc3ccc4O)[C@H](O)c3ccc(c(Cl)c3)Oc3cc2cc(c3O[C@@H]2O[C@H](CO)[C@@H](O)[C@H](O)[C@H]2O[C@H]2C[C@](C)(N)[C@H](O)[C@H](C)O2)Oc2ccc(cc2Cl)[C@H]1O` [vancomycin] was tested, and the “reduction in the quantity of bacteria present in the kidneys versus non-treated animals” value ([1]; Assay I: 6.0×10^7 bacteria CEB MRSA IP, treatment from 4 hours after infection, three days after infection, vancomycin every 12 hours (5 doses)) was “around 15 times”, the “bacteria recovered from kidneys, mean of group” value ([1]; Assay I: 6.0×10^7 bacteria CEB MRSA, antibody 400 μg, vancomycin 5 doses, antibody (300 μg)+vancomycin) was 172,250 bacteria and the “bacteria recovered from kidneys, mean of group” value ([2]; Assay II: 7.0×10^6 bacteria CEB MRSA, vancomycin every 12 hours (5 doses), antibody (500 μg)+vancomycin) was 720 bacteria. For the same molecule, the “reduction of bacteria in kidneys versus non-treated animals” value ([2]; Assay II: lower infective dose 7.0×10^6 bacteria CEB MRSA, vancomycin 5 doses, combination) was 35 times.
